Laboratory results as given in PMC8957246, “Synthesis and diverse biological activity profile of triethylammonium isatin-3-hydrazones” (ADMET & DMPK, 2022).

Key:
Type in all cases: cell-based
[1] = system: Staphylococcus aureus ATCC 6538P FDA 209P; experiment: Antimicrobial activity, serial dilution (MIC/MBC), Sa; conditions: Staphylococcus aureus; for MBC: read-out: MBC (converted)
Protocol: (§1) The antimicrobial activity of the test compounds was determined by the serial dilution technique in Muller Hinton Broth 2 and in Sabouradu broth for fungi. The cultures used for testing included Gram-positive bacteria: Staphylococcus aureus ATCC 6538P FDA 209P, Bacillus cereus ATCC 10702 NCTC 8035, Enterococcus faecalis ATCC 29212; Gram-negative bacteria: Escherichia coli ATCC 25922, Pseudomonas aeruginosa ATCC 9027, and fungi: Trichophyton mentagrophytes var. gypseum 1773, and Candida albicans ATCC 10231; methicillin-resistant strains of S. aureus (MRSA) was obtained from hospital patients with chronic tonsillitis in the Republican Clinical Hospital (Kazan, Russia). The bacterial load was 3.0 × 10^5 cfu/ml. The fungi load was 2.0 × 10^3 cfu/ml. The results were recorded every 24 h for 5-7 days. Cultures were incubated at 37 °C. The experiment was repeated three times. […] The minimum inhibitory concentration (MIC) was defined as the minimum concentration of a compound that inhibits the growth of the corresponding test microorganism. The growth of bacteria, as well as the absence of the growth due to the bacteriostatic action of compounds, were recorded.
(§2) Synthesized compounds were further evaluated for antimicrobial activity against test microorganisms: Staphylococcus aureus ATCC 209p (Sa), Bacillus cereus ATCC 8035 (Bc), Escherichia coli CDC F-50 (Ec), Enterococcus faecalis (Ef), Pseudomonas aeruginosa ATCC 9027, Aspergillus niger BKMF-1119, Trichophyton mentagrophytes var. gypseum 1773, and Candida albicans 855-653 including methicillin-resistant strains of S. aureus (MRSA 1 and MRSA 2). The minimum inhibitory (MIC) and minimum bactericidal (MBC) concentrations of ammonium salts were determined against these pathogens (Table 1). Due to the lack of activity of compounds 3a-g against Gram-negative bacterial strains and some fungi, the corresponding data are not shown.

[2] = system: Bacillus cereus ATCC 10702 NCTC 8035; experiment: Antimicrobial activity, serial dilution (MIC/MBC), Bc; conditions: Bacillus cereus; for MIC: read-out: MIC
Protocol: as §1, §2

[3] = system: Phytophthora cactorum VKM F-985; experiment: Fungicidal activity, radial growth inhibition, P. cactorum; conditions: for EC50: Phytophthora cactorum, 168 h, day 7, EC50 = 50C/I, read-out: EC50, μg/mL at day 7
From the text: Plant pathogenic bacterial strains Micrococcus luteus B-109, Pectobacterium atrosepticum 1043, Pectobacterium carotovorum subsp. carotovorum MI, Pseudomonas fluorescens EL-2.1, and Xanthomonas campestris B-610 and fungal strain Fusarium oxysporum IBPPM 543 were obtained from the specialized scientific culture collection of IBPPM RAS (WFCC no. 975, WDCM no. 1021) (CM IBPPM). Pathogenic fungus Phytophthora cactorum VKM F-985 provided by the All-Russian Collection of Microorganisms (VKM) and deposited at A.E. Favorsky Irkutsk Institute of Chemistry, SB RAS, was also used as test organism. Bacteria M. luteus, P. carotovorum subsp. carotovorum, P. atrosepticum, and Ps. fluorescens were grown in meat-peptone medium (BP), and X. campestris was grown in the medium with glucose, yeast extract, and calcium carbonate (GYCa). Solid media contained Bacto agar (18 g/L); pH was adjusted to 7.2-7.4. All bacterial cultures were grown at 28°C. The mycelial cultures of F. oxysporum and P. cactorum were grown on a glucose-peptone-yeast (GPY) nutrient medium at 27 °C. For inoculum preparation, both fungal strains were initially grown on the agar GPY in Petri dishes and then transferred into the seed medium by punching out 5 mm of the agar plate culture with a self-designed cutter.
For the fungicidal activity analysis, radial growth (colony diameters) of the fungi on a solid medium in the absence and in the presence of the compounds 3a,c-g solutions at various concentrations were compared. The method consisted of the following: sterile, melted and then cooled to about 60°C GPY agar medium (20.0 ml) was mixed with the precisely measured volumes of the solutions under question, and poured into a sterile Petri dish (90 mm i.d.). After solidification of GPY agar, the media were inoculated by the fungus using 10-day-old cultures of F. oxysporum or P. cactorum. The inoculation was done by transferring a 5-mm (i.d.) GPY-agar block covered with mycelium to the center of the Petri dish followed by incubation in a thermostat at 27°C. The fungicidal effect was scored by the size of mycelium colony on a Petri dish compared to the control without fungicidal admixtures to GPY agar. Each treatment was performed in at least four replicates in two independent experiments. The observation period ended when the control Petri dish was filled with mycelium (usually after 12 days). The inhibition of the phytopathogen colony growth by the compounds 3a,c-g or fludioxonil solutions was calculated as a percentage by which the mycelium radial propagation was decreased compared to the unaffected control, the latter was taken as 100 % of growth (or zero percent of inhibition). The EC50 value was calculated as the compound concentration at which the radial growth of the fungus colony was decreased by 50 % relative to the non-fungicidal control, according to the formula EC50 = 50C/I based on the approach developed e.g., in [34, 35].
The solutions of tested compounds were prepared with a concentration of 2 mmol/l (stock solution). For comparison, test compounds were also commonly applied disinfecting agents and antibiotics.

CC[N+](CC)(CC)CC(=O)N/N=C1\C(=O)N(Cc2cc(C(C)(C)C)c(O)c(C(C)(C)C)c2)c2c(Br)cc(Cl)cc21 [Compound 3g, 2-(2-(1-(3,5-Di-tert-butyl-4-hydroxybenzyl)-5-chloro-7-bromo-2-oxoindolin-3-ylidene)hydrazinyl)-N,N,N-triethyl-2-oxoethanammonium bromide]
MIC [1]: 11 ± 0.9 µM
MBC [1]: 21.9 µM
MBC [2]: 87.4 µM
MIC [2]: 43.7 ± 3.5 µM
Inhibition value, I (%) ([3]; C 1.43 μg/mL, age of the fungus 3 days): 30%
Inhibition value, I (%) ([3]; C 1.43 μg/mL, age of the fungus 5 days): 29%
Inhibition value, I (%) ([3]; C 1.43 μg/mL, age of the fungus 7 days): 15%
Inhibition value, I (%) ([3]; C 1.43 μg/mL, age of the fungus 9 days): 1%
Inhibition value, I (%) ([3]; C 1.43 μg/mL, age of the fungus 12 days): 0%
Inhibition value, I (%) ([3]; C 3.58 μg/mL, age of the fungus 3 days): 38%
Inhibition value, I (%) ([3]; C 3.58 μg/mL, age of the fungus 5 days): 29%
Inhibition value, I (%) ([3]; C 3.58 μg/mL, age of the fungus 7 days): 22%
Inhibition value, I (%) ([3]; C 3.58 μg/mL, age of the fungus 9 days): 5%
Inhibition value, I (%) ([3]; C 3.58 μg/mL, age of the fungus 12 days): 0%
Inhibition value, I (%) ([3]; C 7.15 μg/mL, age of the fungus 3 days): 40%
Inhibition value, I (%) ([3]; C 7.15 μg/mL, age of the fungus 5 days): 33%
Inhibition value, I (%) ([3]; C 7.15 μg/mL, age of the fungus 7 days): 26%
Inhibition value, I (%) ([3]; C 7.15 μg/mL, age of the fungus 9 days): 14%
Inhibition value, I (%) ([3]; C 7.15 μg/mL, age of the fungus 12 days): 11%
Inhibition value, I (%) ([3]; C 10.73 μg/mL, age of the fungus 3 days): 48%
Inhibition value, I (%) ([3]; C 10.73 μg/mL, age of the fungus 5 days): 43%
Inhibition value, I (%) ([3]; C 10.73 μg/mL, age of the fungus 7 days): 41%
Inhibition value, I (%) ([3]; C 10.73 μg/mL, age of the fungus 9 days): 31%
Inhibition value, I (%) ([3]; C 10.73 μg/mL, age of the fungus 12 days): 26%
Inhibition value, I (%) ([3]; C 14.30 μg/mL, age of the fungus 3 days): 51%
Inhibition value, I (%) ([3]; C 14.30 μg/mL, age of the fungus 5 days): 48%
Inhibition value, I (%) ([3]; C 14.30 μg/mL, age of the fungus 7 days): 46%
Inhibition value, I (%) ([3]; C 14.30 μg/mL, age of the fungus 9 days): 41%
Inhibition value, I (%) ([3]; C 14.30 μg/mL, age of the fungus 12 days): 28%
EC50 [3]: 4.77 µg/mL

CC[N+](CC)(CC)CC(=O)N/N=C1\C(=O)N(Cc2cc(C(C)(C)C)c(O)c(C(C)(C)C)c2)c2ccc([N+](=O)[O-])cc21 [Compound 3f, 2-(2-(1-(3,5-Di-tert-butyl-4-hydroxybenzyl)-5-nitro-2-oxoindolin-3-ylidene)hydrazinyl)-N,N,N-triethyl-2-oxoethanammonium bromide]
MIC [1]: 48.3 ± 3.9 µM
MBC [1]: 96.7 µM
MBC [2]: > 500 µM
MIC [2]: 397 ± 31.7 µM
Inhibition value, I (%) ([3]; C 1.29 μg/mL, age of the fungus 3 days): 17%
Inhibition value, I (%) ([3]; C 1.29 μg/mL, age of the fungus 5 days): 11%
Inhibition value, I (%) ([3]; C 1.29 μg/mL, age of the fungus 7 days): 2%
Inhibition value, I (%) ([3]; C 1.29 μg/mL, age of the fungus 9 days): 0%
Inhibition value, I (%) ([3]; C 1.29 μg/mL, age of the fungus 12 days): 0%
Inhibition value, I (%) ([3]; C 3.24 μg/mL, age of the fungus 3 days): 33%
Inhibition value, I (%) ([3]; C 3.24 μg/mL, age of the fungus 5 days): 19%
Inhibition value, I (%) ([3]; C 3.24 μg/mL, age of the fungus 7 days): 18%
Inhibition value, I (%) ([3]; C 3.24 μg/mL, age of the fungus 9 days): 1%
Inhibition value, I (%) ([3]; C 3.24 μg/mL, age of the fungus 12 days): 0%
Inhibition value, I (%) ([3]; C 6.47 μg/mL, age of the fungus 3 days): 35%
Inhibition value, I (%) ([3]; C 6.47 μg/mL, age of the fungus 5 days): 23%
Inhibition value, I (%) ([3]; C 6.47 μg/mL, age of the fungus 7 days): 20%
Inhibition value, I (%) ([3]; C 6.47 μg/mL, age of the fungus 9 days): 8%
Inhibition value, I (%) ([3]; C 6.47 μg/mL, age of the fungus 12 days): 1%
Inhibition value, I (%) ([3]; C 9.71 μg/mL, age of the fungus 3 days): 41%
Inhibition value, I (%) ([3]; C 9.71 μg/mL, age of the fungus 5 days): 36%
Inhibition value, I (%) ([3]; C 9.71 μg/mL, age of the fungus 7 days): 32%
Inhibition value, I (%) ([3]; C 9.71 μg/mL, age of the fungus 9 days): 20%
Inhibition value, I (%) ([3]; C 9.71 μg/mL, age of the fungus 12 days): 16%
Inhibition value, I (%) ([3]; C 12.94 μg/mL, age of the fungus 3 days): 59%
Inhibition value, I (%) ([3]; C 12.94 μg/mL, age of the fungus 5 days): 55%
Inhibition value, I (%) ([3]; C 12.94 μg/mL, age of the fungus 7 days): 53%
Inhibition value, I (%) ([3]; C 12.94 μg/mL, age of the fungus 9 days): 48%
Inhibition value, I (%) ([3]; C 12.94 μg/mL, age of the fungus 12 days): 30%
EC50 [3]: 8.99 µg/mL

CC[N+](CC)(CC)CC(=O)N/N=C1\C(=O)N(Cc2cc(C(C)(C)C)c(O)c(C(C)(C)C)c2)c2ccccc21 [Compound 3a, 2-(2-(1-(3,5-Di-tert-butyl-4-hydroxybenzyl)-2-oxoindolin-3-ylidene)hydrazinyl)-N,N,N-triethyl-2-oxoethanammonium bromide]
MIC [1]: 6.5 ± 0.5 µM
MBC [1]: 13 µM
MBC [2]: > 500 µM
MIC [2]: 52 ± 4.7 µM
Inhibition value, I (%) ([3]; C 3.01 μg/mL, age of the fungus 3 days): 4%
Inhibition value, I (%) ([3]; C 3.01 μg/mL, age of the fungus 5 days): 9%
Inhibition value, I (%) ([3]; C 3.01 μg/mL, age of the fungus 7 days): 15%
Inhibition value, I (%) ([3]; C 3.01 μg/mL, age of the fungus 9 days): 1%
Inhibition value, I (%) ([3]; C 3.01 μg/mL, age of the fungus 12 days): 0%
Inhibition value, I (%) ([3]; C 6.02 μg/mL, age of the fungus 3 days): 13%
Inhibition value, I (%) ([3]; C 6.02 μg/mL, age of the fungus 5 days): 21%
Inhibition value, I (%) ([3]; C 6.02 μg/mL, age of the fungus 7 days): 22%
Inhibition value, I (%) ([3]; C 6.02 μg/mL, age of the fungus 9 days): 4%
Inhibition value, I (%) ([3]; C 6.02 μg/mL, age of the fungus 12 days): 5%
Inhibition value, I (%) ([3]; C 9.03 μg/mL, age of the fungus 3 days): 17%
Inhibition value, I (%) ([3]; C 9.03 μg/mL, age of the fungus 5 days): 22%
Inhibition value, I (%) ([3]; C 9.03 μg/mL, age of the fungus 7 days): 25%
Inhibition value, I (%) ([3]; C 9.03 μg/mL, age of the fungus 9 days): 4%
Inhibition value, I (%) ([3]; C 9.03 μg/mL, age of the fungus 12 days): 5%
Inhibition value, I (%) ([3]; C 12.04 μg/mL, age of the fungus 3 days): 40%
Inhibition value, I (%) ([3]; C 12.04 μg/mL, age of the fungus 5 days): 47%
Inhibition value, I (%) ([3]; C 12.04 μg/mL, age of the fungus 7 days): 49%
Inhibition value, I (%) ([3]; C 12.04 μg/mL, age of the fungus 9 days): 41%
Inhibition value, I (%) ([3]; C 12.04 μg/mL, age of the fungus 12 days): 26%
EC50 [3]: 10 µg/mL
